Experimental data published in patent US5086054A, “Novel arylcycloalkanepolyalkylamines” (SRI International, priority 1990, dated 1992).
“Also recorded” adds a separate entry of the source. Where two headings read alike, the source gives them in different places.

How the values were obtained:
[1] = biological target: T1, SIGMA RECEPTOR (Cavia porcellus, UniProt Q60492); experiment: Sigma receptor binding assay ([3H]-d-SKF-10,047 displacement, brain membranes); set-up: species or system guinea-pig (male Hartley)
T1 construct: Two milliter aliquots of the brain membrane preparation, containing 1.7 mg of protein; tissue Pel-Freeze (Rogers, Arkansas); host or cells: guinea-pig brains plus cerebella, membranes
T1 sequence (Q60492 whole entry): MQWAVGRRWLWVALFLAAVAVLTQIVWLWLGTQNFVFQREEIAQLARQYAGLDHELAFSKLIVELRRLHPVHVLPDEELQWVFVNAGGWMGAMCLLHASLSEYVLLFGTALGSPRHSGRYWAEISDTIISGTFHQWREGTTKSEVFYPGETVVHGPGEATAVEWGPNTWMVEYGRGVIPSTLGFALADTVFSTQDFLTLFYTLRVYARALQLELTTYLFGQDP
Procedure: (§1) This example illustrates testing of compounds in receptor binding assays.
(§2) Frozen brains from male Hartley guinea-pigs were obtained from Pel-Freeze (Rogers, Arkansas).
(§3) The brains plus cerebella were homogenized in 10 volumes (v/w) of 0.1M, pH 7.4, ice-cold Tris-HCl buffer with a Brinkmann polytron at setting 4 for 20 seconds. The homogenates were centrifuged at 20,000×g for 20 minutes at 4° C. The pellets were suspended in 10 volumes of ice-cold water and, after sitting on ice for 10 minutes, were centrifuged 30 minutes at 20,000×g at 4° C. The resulting pellets were resuspended in the above Tris buffer in ratio 1:100 (w/v) for σ receptor assays or in 5 mM Tris-HCl having pH 7.4, for PCP receptor assays. The final suspension was homogenized with a dounce glass-glass tissue grinder Wheaton "200", at small clearance (B), with three strokes before use. Two milliter aliquots of the brain membrane preparation, containing 1.7 mg of protein, were incubated in quadruplicate for one hour at 23° C. with competing mixture of ligand and radioligand. For σ receptors, [^3 H]-d-SKF-10,047, 2 nM was used. For PCP receptors, [^3 H] TCP [^3 H]-1-[1-(2-thienyl)cyclohexyl]piperidine), 1 nM was used. The nonspecific bindings were defined by 0.1 mM d-SKF-10,047 and 0.1 mM phencyclidine respectively for σ and PCP receptors. After incubation, free ligand was separated from bound ligand by rapid filtration through Whatman GF/C filters. The filters had been soaked before use in isoamyl alcohol-saturated water to prevent nonspecific [^3 H]-d-SKF-10,047 binding to the filter. In the PCP receptor assay, the filter was soaked in 0.5% polyethylenimine to reduce the filter binding of [^3 H]-TCP. After filtration, the trapped tissue was washed three times with 4 ml aliquots of 0.1 M ice-cold Tris buffer at pH 7.4 for σ receptors and 5 mM, ice-cold Tris buffer pH 7.4 for PCP receptors. The filters were transferred to 5 ml of liquid scintillation fluid and the retained radioactivity was measured by liquid scintillation spectrometry.

[2] = system: PCP RECEPTOR; experiment: PCP receptor binding assay ([3H]-TCP displacement, brain membranes); set-up: species or system guinea-pig (male Hartley); settings: for IC50: read-out: PCP RECEPTOR IC50
Procedure: as §1, §2, §3
Programs in Biomed. 17:107 (1983)].

[3] = Table 1, slope of dose response curve
[4] = Table 2, aryl ring substituents
[5] = Table 1, mean ± error (n), read-out: SIGMA RECEPTOR IC50
[6] = SIGMA RECEPTOR IC50, Table 1, mean ± error (n)
[7] = Table 2, aryl ring substituents, read-out: SIGMA RECEPTOR IC50

SMILES | potency at σ receptors (in words) [1] | SIGMA RECEPTOR SLOPE [1, 3] | SIGMA RECEPTOR SLOPE ([1]; Table 2) | potency at PCP receptors (in words) [2] | IC50 ([2]; Table 1, mean ± error (n)) [nM] | IC50 [2, 4] [nM] | IC50 [1, 5] [nM] | IC50 [1, 7] [nM] | selectivity for σ receptors (in words) [1] | other results
c1ccc(C2(CN3CCCCC3)CCCCC2)cc1 [Compound 2] | increased the potency of the compound in the σ receptor assay | 0.66 ± 0.1 | 0.66 ± 0.1 | reduced the potency in the PCP receptor assay | 1830 | 1830 |  |  |  | SIGMA RECEPTOR SLOPE ([1]; Table 3): 0.66 ± 0.01; IC50 ([1]; Table 3, cycloalkyl ring size, read-out: SIGMA RECEPTOR IC50): 104 nM; increased potency for σ receptors ([1]; relative to PCP (1)): about 80 times; IC50 ([2]; Table 3, cycloalkyl ring size): 1830 nM; decreased potency for PCP receptors ([2]; relative to PCP (1)): approximately 40 times
C[N+]1(CCOC(=O)C2(c3ccccc3)CCCCC2)CCCCC1 [Compound 4] |  |  |  | reduced the potency in the PCP receptor assay; also recorded: drastically reduced potency for both σ and PCP receptors; also recorded: inactive in the PCP assay; also recorded: did not increase potency for PCP receptors | > 25000 |  | > 25000 |  |  | 
c1ccc(C2(N3CCCC3)CCCCC2)cc1 [Compound 5, 1-(1-phenylcyclohexyl)pyrrolidine, reference compound] |  | 0.83 ± 0.06 |  |  | 110 ± 6 |  |  |  |  | IC50 [1, 6]: 7730 nM
c1ccc(C2(CN3CCCC3)CCCCC2)cc1 [Compound 6] | increased potency for σ receptors | 0.88 ± 0.07 | 0.88 ± 0.07 | already inactive at PCP receptors | 1270 |  | 4740 | 4750 |  | 
c1ccc(C2(CCN3CCCC3)CCCCC2)cc1 [Compound 7] |  | 1.22 ± 0.03 |  | decreased the potency in the PCP receptor assay | 1720 |  | 141 |  |  | increased potency for σ receptors ([1]; relative to PCPY (5)): approximately 30 fold
C[N+]1(CCOC(=O)C2(c3ccccc3)CCCCC2)CCCC1 [Compound 9] | σ receptor potency increased; also recorded: effectively reversed the potency for σ receptors | 0.62 ± 0.18 |  | inactive in the PCP assay; also recorded: did not increase potency for PCP receptors | > 25000 |  | 242 |  |  | 
c1ccc(C2(N3CCOCC3)CCCCC2)cc1 [Compound 10, 4-(1-phenylcyclohexyl)morpholine, reference compound] |  | 0.47 ± 0.02 |  |  | 633 ± 71 |  |  |  |  | IC50 [1, 6]: 2530 nM
c1ccc(C2(CN3CCOCC3)CCCCC2)cc1 [Compound 11] | increased potency for σ receptors | 0.60 ± 0.03 | 0.60 ± 0.03 | inactive in the PCP receptor assay | > 25000 | > 25000 | 710 |  |  | 
CCN(CC)C1(c2ccccc2)CCCCC1 [Compound 13, N,N-diethyl-1-phenylcyclohexylamine, reference compound] |  | 0.40 ± 0.07 |  |  | 331 ± 34 |  |  |  |  | IC50 [1, 6]: 573 nM
CCN(CC)CC1(c2ccccc2)CCCCC1 [Compound 14] | increased potency for σ receptors | 0.66 ± 0.17 | 0.66 ± 0.17 | inactive in the PCP receptor assay | > 25000 | > 25000 | 208 |  |  | 
CC[N+](C)(CC)CCOC(=O)C1(c2ccccc2)CCCCC1 [Compound 16] | σ receptor potency increased; also recorded: effectively reversed the potency for σ receptors | 0.86 ± 0.07 |  | inactive in the PCP assay; also recorded: did not increase potency for PCP receptors | > 25000 |  | 2230 |  |  | 
CN(C)C1(c2ccccc2)CCCCC1 [Compound 17, N,N-dimethyl-1-phenylcyclohexylamine, reference compound] |  | 0.53 ± 0.05 |  |  | 242 ± 8 |  |  |  |  | IC50 [1, 6]: 1950 nM
CN(C)CC1(c2ccccc2)CCCCC1 [Compound 18] | increased potency for σ receptors | 0.85 ± 0.07 | 0.85 ± 0.07 | inactive in the PCP receptor assay | > 25000 | > 25000 | 4130 | 4130 |  | 
C[N+](C)(C)CCOC(=O)C1(c2ccccc2)CCCCC1 [Compound 20] |  | 1.22 ± 0.15 |  | inactive in the PCP assay; also recorded: did not increase potency for PCP receptors | > 25000 |  | 12300 |  |  | 
Oc1cccc(C2(CN3CCCCC3)CCCCC2)c1 [Compound 21] | diminished binding to σ receptors |  |  |  |  | > 25000 |  | > 25000 |  | 
Cc1ccc(C2(CN3CCCCC3)CCCCC2)cc1 [Compound 23] | slightly lower σ receptor potencies |  | 0.69 ± 0.01 |  |  | > 25000 |  | 223 | substantially increases selectivity for σ receptors | 
O=[N+]([O-])c1ccc(C2(CN3CCCCC3)CCCCC2)cc1 [Compound 24] | slightly lower σ receptor potencies |  | 0.47 ± 0.06 |  |  | > 25000 |  | 249 | substantially increases selectivity for σ receptors | 
Clc1cccc(C2(CN3CCCCC3)CCCCC2)c1 [Compound 25] | most potent at σ receptors |  | 0.69 ± 0.05 | showed some potency at PCP receptors |  | 1830 |  |  | least specific | IC50 ([1]; read-out: IC50 at σ receptors): 71 nM
COc1cccc(C2(CN3CCCCC3)CCCCC2)c1 [Compound 26] | slightly lower σ receptor potencies |  | 0.74 ± 0.07 |  |  | > 25000 |  | 326 | substantially increases selectivity for σ receptors | 
COc1ccc(C2(CN3CCCCC3)CCCCC2)cc1 [Compound 27] | slightly lower σ receptor potencies |  | 0.69 ± 0.04 |  |  | > 25000 |  | 221 | substantially increases selectivity for σ receptors | 
COc1ccc(C2(CN3CCCCC3)CCCCC2)cc1OC [Compound 28] | slightly lower σ receptor potencies; also recorded: poor to reasonable potency at σ sites |  | 0.56 ± 0.03 |  |  | > 25000 |  | 387 ± 18 | substantially increases selectivity for σ receptors; also recorded: high selectivity for σ receptors | 
Oc1cccc(C2(CN3CCCC3)CCCCC2)c1 [Compound 29] | only slight effect on σ receptor potency |  | 0.80 ± 0.07 |  |  | 1320 |  | 1080 | selectivity for σ receptors was poor | 
Oc1ccc(C2(CN3CCCC3)CCCCC2)cc1 [Compound 30] | did not improve potency as much as the 3-hydroxy derivative |  | 0.78 ± 0.02 | inactive at PCP receptor sites |  | > 25000 |  | 1740 | considerably improved selectivity for σ receptors | 
O=[N+]([O-])c1ccc(C2(CN3CCCC3)CCCCC2)cc1 [Compound 31] | somewhat potent |  | 0.65 ± 0.05 | inactive at PCP sites |  | > 25000 |  | 282 | very selective for σ receptors | 
Clc1cccc(C2(CN3CCCC3)CCCCC2)c1 [Compound 32] |  |  | 0.73 ± 0.16 |  |  | 867 ± 9 |  | 248 |  | 
COc1cccc(C2(CN3CCCC3)CCCCC2)c1 [Compound 33] |  |  | 0.73 ± 0.08 |  |  | 552 ± 20 |  | 1190 |  | 
